The first assay relates to Drosophila suzukii adults. Description: Multiple choice bioassay #1: anthracnose-induced volatiles, gated traps with blueberries. It is filed as in vivo. The note with it: 50 μL neat volatile added to blueberry fruit in gated trap; 15 traps per arena; 24 h; n=4. How it is done: These bioassays were done in arenas that consisted of a dome cage (60 cm width×60 cm length x 60 cm height; BugDorm-2120 Insect tent; shop.bugdorm.com) (FIG. 1A). Within each arena, 15 gated traps were positioned randomly in a circle (40 cm diameter) at equal distance with each trap 8.4 cm apart along the circumference (FIG. 1A). Each gated trap consisted of 50 mL polystyrene tubes (Fisher Scientific, Nazareth, PA, USA) covered with aluminum foil and sealed with Parafilm®, with a 4 mm-diameter hole in the center of the Parafilm to provide an entrance to flies. All traps had equal quantities (ca. 5 g) of store-bought organic blueberry fruit (n=5); fruit were sterilized with bleach prior to the study (10% bleach for 2 min, rinsed three times in distilled water). One of the 15 traps served as a control (with blueberry fruit only) and the remaining 14 traps had one of the anthracnose volatile compounds added to the blueberry fruit. The 14 compounds tested were: 3-hydroxy-2-butanone, styrene, (E)-2-hexen-1-ol, ethyl 3-hydroxy-3-methylbutanoate, 2-methyl-1-butanol, ethyl propanoate, 2-methyl-1-propanol, diethyl carbonate, 2-methylpropanal, 3-methyl-1-butanol, ethyl 2-methylpropanoate, ethyl butanoate, ethyl (E)-but-2-enoate, and 3-methyl-3 buten-1-ol (see Results). Each volatile (50 μL, neat) was released from a 1 mL polyethylene vial (Globe Scientific Inc., Paramus, NJ, USA) with a piece of cotton placed inside each trap (control traps had vials with cotton but without the volatile). A vial with a cotton ball soaked with deionized water was placed in the middle of the arena to provide flies with water during the experiment. Roughly 300 D. suzukii adults (1:1 male: female ratio) were released inside each arena and the number and sex of flies inside treatment and control traps was recorded after 24 h. The experiment started at 1:00 p.m., was replicated 4 times, and was done in a laboratory under 22+2° C., 55+5% RH, 16:8 (L:D) h.
Data from multiple choice assays on the percent of male and female D. suzukii adults responding to each volatile were compared using ANOVA (Minitab version 17; Minitab Inc., State College, PA, USA). The ANOVA model included treatment, sex, and their interaction as fixed factors and block (replicate) as a random factor. A multi-comparison Tukey test (Minitab) was used to determine differences among treatments. Percent data were arcsine square-root transformed prior to ANOVA. Pairwise choice assays were analyzed using G-tests with William's correction. Non-responders were excluded from the statistical analyses.
Consider `CCOC(=O)CC` [ethyl propanoate], for which the “number of flies captured relative to the control” value is given as “reduced the number of flies captured relative to the control”.

For the compound `CC(C)C=O` [2-methylpropanal], the “number of flies captured relative to the control” value is “reduced the number of flies captured relative to the control”. Same read-out and setting: for `CC(=O)C(C)O` (stereo not shown) [3-hyrdroxy-2-butanone, 3-Hydroxy-2-butanone] the value was “trapped a higher number of flies than the control”; for `CCOC(=O)CC(C)(C)O` [ethyl 3-hydroxy-3-methylbutanoate, Ethyl 3-hydroxy-3-methylbutanoate], “captured a similar number of flies as the control”.

As for `CC(C)CO` [2-methyl-1-propanol], the “number of flies captured relative to the control” value is on record as “reduced the number of flies captured relative to the control”. On to `C=Cc1ccccc1` [styrene], for which the “number of flies captured relative to the control” value is “trapped a higher number of flies than the control”. With `CC(C)CCO` [3-methyl-1-butanol], the “number of flies captured relative to the control” value was “reduced the number of flies captured relative to the control”. On the same count and under the same terms, for `CCC(C)CO` (stereo not shown) [2-methyl-1-butanol] the value was “captured a similar number of flies as the control”; for `CCC/C=C/CO` [(E)-2-hexen-1-ol], “captured a similar number of flies as the control”. The same measure, in the same setting: next, `C=C(C)CCO` [3-methyl-3-buten-1-ol]: “reduced the number of flies captured relative to the control”. Same read-out and setting: next, `CCOC(=O)C(C)C` [ethyl 2-methylpropanoate]: “reduced the number of flies captured relative to the control”; `CCOC(=O)OCC` [diethyl carbonate]: “reduced the number of flies captured relative to the control”.

The next assay relates to Drosophila suzukii adults. Description: Multiple choice bioassay #2: known and putative repellents. It is filed as in vivo. Conditions: 50 μL neat; six traps per arena; 24 h; n=6. The protocol:
Within each arena, six gated traps were positioned randomly in a circle (40 cm diameter) at equal distance with each trap 20 cm apart along the circumference. Each gated trap contained ˜5 g of store-bought organic blueberry fruit (n=5), as described elsewhere herein. One of the six traps served as a control (with blueberry fruit only) and the remaining five traps had one of the repellents added to the blueberry fruit. Each volatile (50 μL, neat) was released from a 1 mL polyethylene vial with a piece of cotton placed inside each trap (control traps had vials with cotton but without the volatile). A vial with a cotton ball soaked with deionized water was placed in the middle of the arena. Roughly 150 D. suzukii adults (1:1 male: female ratio) were released inside each arena and the number and sex of flies inside treatment and control traps was recorded after 24 h. The experiment started at 1:00 p.m., was replicated 6 times, and was done in a laboratory under 22±2° C., 55±5% RH, 16:8 (L:D) h. Data from multiple choice assays on the percent of male and female D. suzukii adults responding to each volatile were compared using ANOVA (Minitab version 17; Minitab Inc., State College, PA, USA). The ANOVA model included treatment, sex, and their interaction as fixed factors and block (replicate) as a random factor. A multi-comparison Tukey test (Minitab) was used to determine differences among treatments. Percent data were arcsine square-root transformed prior to ANOVA. Pairwise choice assays were analyzed using G-tests with William's correction. Non-responders were excluded from the statistical analyses.
Consider `CC1CCCC2(C)CCCCC12O` (stereo not shown) [geosmin], for which the “strength of repellency among the five repellents (rank)” value was “the least repellent”.

The values above are taken from patent US20250169495A1, “COMPOSITIONS AND METHODS FOR CONTROLLING DROSOPHILA FLIES” (Rutgers, The State University of New Jersey, priority 2023, published 2025).
